In data set [1] the test system is eHEV-nanoKAZ. Description: Time-of-addition: viral attachment assay (intracellular luciferase activity). As to conditions: PLC/PRF/5 cells. In kind it is cell-based, Hepatitis E virus.
Data set [2] deals with eHEV-nanoKAZ. Nature of the data set: Time-of-addition: viral internalization assay. In kind it is cell-based, Hepatitis E virus. Conditions: PLC/PRF/5 cells.
Data set [3] concerns eHEV-3 (JE03-1760F). Nature of the data set: Immunofluorescence assay of HEV ORF2 protein expression in PLC/PRF/5 cells. Conditions: day 4 post-inoculation. It is filed as cell-based, Hepatitis E virus genotype 3.
Data set [4] relates to eHEV-3 (JE03-1760F). Description: HEV growth in PLC/PRF/5 cells inoculated with eHEV-3. In kind it is cell-based, Hepatitis E virus genotype 3. As to conditions: 48 dpi.
For data set [5], the system named is eHEV-4 (HE-JF5/15F). Nature of the data set: HEV growth in PLC/PRF/5 cells inoculated with eHEV-4. It is filed as cell-based, Hepatitis E virus genotype 4. As to conditions: 48 dpi.
For data set [6], the system named is eHEV-3 (JE03-1760F). Nature of the data set: HEV growth in PLC/PRF/5 cells robustly producing eHEV-3. It is filed as cell-based, Hepatitis E virus genotype 3.
Data set [7] concerns eHEV-4 (HE-JF5/15F). Description: HEV growth in PLC/PRF/5 cells robustly producing eHEV-4. In kind it is cell-based, Hepatitis E virus genotype 4.
In data set [8] the test system is HEV. Conditions: ribavirin monotherapy; undetectable serum HEV RNA at least six months after cessation; cited from earlier work.
Data set [9] concerns eHEV-nanoKAZ. Description: microbe, parasite or virus in culture. Conditions: Hepatitis E virus, PLC-PRF-5, read-out: Inhibition (%) of intracellular luciferase activity.
The test system of data set [10] is eHEV-nanoKAZ. Nature of the data set: Time-of-addition: viral inactivation assay (intracellular luciferase activity). As to conditions: PLC/PRF/5 cells, 4 days post-inoculation.
Details of data set [11]: method as in ref 47 = [47]. Conditions: Antiretroviral Pregnancy Registry (APR); cited from earlier work.
Data set [12] concerns HEV. Set-up: method as in ref 31 = [31]. Conditions: cited from earlier work.
Setting [13] is: ribavirin 40 μM, mean of triplicate wells.
[14] abbreviates: ribavirin 40 μM, 60 days after the start of drug treatment, mean of triplicate wells.
The mark [15] stands for this setting: ribavirin alone 40 µM, day 60 after the start of drug treatment.

As usually defined, the inhibition is how much of the control response was suppressed. As to `NC(=O)c1ncn([C@@H]2O[C@H](CO)[C@@H](O)[C@H]2O)n1` [Ribavirin, ribavirin], the intracellular luciferase activity result in the data set on eHEV-nanoKAZ [1] (ribavirin 40 µM during attachment), in the data set on eHEV-nanoKAZ [2] (ribavirin 40 µM added after attachment) and in the data set with eHEV-nanoKAZ [10] (ribavirin 40 µM pre-incubated with eHEV-nanoKAZ) was “did not decrease intracellular luciferase activity” each time. Besides, the “expression of ORF2 protein” value in the data set with eHEV-3 (JE03-1760F) [3] (ribavirin 40 µM during 4 h inoculation) is on record as “detectable”. The “Intracellular HEV RNA” value with eHEV-3 (JE03-1760F) [4] (setting [13]) is reported as 1.2 × 10^8 copies/well (mean); in the data set with eHEV-4 (HE-JF5/15F) [5] (setting [13]) it was 4.4 × 10^7 copies/well (mean); in the data set with eHEV-3 (JE03-1760F) [6] (setting [14]), 1.6 × 10^7 copies/well (mean); in the data set on eHEV-4 (HE-JF5/15F) [7] (setting [14]), 2.3 × 10^7 copies/well (mean). Moreover, the “HEV RNA titer in culture supernatants” value in the data set with eHEV-3 (JE03-1760F) [4] (ribavirin monotherapy 40 µM) is on record as 2.0 × 10^7 copies/mL; in the data set with eHEV-4 (HE-JF5/15F) [5] (ribavirin monotherapy 40 µM) it was 4.3 × 10^7 copies/mL; with eHEV-3 (JE03-1760F) [6] (setting [15]), 2.7 × 10^6 copies/mL; in the data set on eHEV-4 (HE-JF5/15F) [7] (setting [15]), 2.9 × 10^7 copies/mL. The “sustained virological response (SVR), patients achieving” value with HEV [8] is reported as “approximately 80%”. In addition, in the data set with eHEV-nanoKAZ [9], the inhibition at 1 µM stood at 20.4%. For the same compound, the inhibition at 5 µM with eHEV-nanoKAZ [9] came out at 24.2%. The inhibition at 10 µM in the data set with eHEV-nanoKAZ [9] is 33.3%. Moreover, the inhibition at 20 µM in the data set with eHEV-nanoKAZ [9] is 58%. Moreover, the inhibition at 40 µM in the data set on eHEV-nanoKAZ [9] was found to be 79.6%. In the data set on eHEV-nanoKAZ [9], the inhibition at 80 µM is 91%.

With `CC(C)c1nc(CN(C)C(=O)N[C@H](C(=O)N[C@@H](Cc2ccccc2)C[C@H](O)[C@H](Cc2ccccc2)NC(=O)OCc2cncs2)C(C)C)cs1` [Ritonavir, ritonavir], in the data set on eHEV-nanoKAZ [1] (ritonavir 20 µM during attachment (4 °C 1 h, 37 °C 1 h), compared to untreated control), the intracellular luciferase activity is reported as 100.4%. For the same compound, the intracellular luciferase activity in the data set on eHEV-nanoKAZ [2] (ritonavir 20 µM added after attachment, 37 °C 2 h, compared to untreated control, p = 0.0036) is recorded as 9.6%. Also, in the data set on eHEV-3 (JE03-1760F) [3] (ritonavir 20 µM during 4 h inoculation), the “expression of ORF2 protein” value is listed as “undetectable”. Also, the “risk of human teratogenicity” value in [11] was “no evidence of an increased risk of human teratogenicity”. The “inhibition of HEV growth in cultured cells” value with HEV [12] is on record as “potent inhibition of HEV growth in cultured cells”. Besides, in the data set on eHEV-nanoKAZ [9], the inhibition at 0.05 µM came to 18.1%, the inhibition at 0.1 µM came to 29.1%, the inhibition at 0.5 µM is 59.6% and the inhibition at 1 µM came to 71.6%. In addition, in the data set on eHEV-nanoKAZ [9], the inhibition at 5 µM came out at 89.7% and the inhibition at 35 µM was found to be 95.9%. In the data set with eHEV-nanoKAZ [10] (ritonavir 20 µM pre-incubated with eHEV-nanoKAZ 1 h 37 °C, compared to untreated control), the intracellular luciferase activity was found to be 94.3%.

On to `OC[C@H]1O[C@@](CO)(O[C@H]2O[C@H](CO)[C@@H](O)[C@H](O)[C@H]2O)[C@@H](O)[C@@H]1O` [Sucrose], for which the intracellular luciferase activity with eHEV-nanoKAZ [2] (sucrose 250 mM added after attachment, 37 °C 2 h, compared to untreated control, p = 0.0033) is on record as 14.9%. Further, the “expression of ORF2 protein” value in the data set with eHEV-3 (JE03-1760F) [3] (sucrose 250 mM during 4 h inoculation) was “undetectable”.

These data come from article PMC9697947 (Viruses, 2022).
